Experimental data as given in patent US20150045610A1, “METHOD OF MODIFYING SPERMATOGENESIS, SPERMIOGENESIS AND/OR FERTILITY IN MAMMALS” (Monell Chemical Senses Center, priority 2012, published 2015).
pIC50: −log10 of the molar value. Read-outs that look alike come from different tables or passages of the source.

Target: T1, human T1R3 receptor (Homo sapiens, UniProt Q7RTX0)
T1 construct: expressed in transfected cells
T1 sequence (Q7RTX0 21-852): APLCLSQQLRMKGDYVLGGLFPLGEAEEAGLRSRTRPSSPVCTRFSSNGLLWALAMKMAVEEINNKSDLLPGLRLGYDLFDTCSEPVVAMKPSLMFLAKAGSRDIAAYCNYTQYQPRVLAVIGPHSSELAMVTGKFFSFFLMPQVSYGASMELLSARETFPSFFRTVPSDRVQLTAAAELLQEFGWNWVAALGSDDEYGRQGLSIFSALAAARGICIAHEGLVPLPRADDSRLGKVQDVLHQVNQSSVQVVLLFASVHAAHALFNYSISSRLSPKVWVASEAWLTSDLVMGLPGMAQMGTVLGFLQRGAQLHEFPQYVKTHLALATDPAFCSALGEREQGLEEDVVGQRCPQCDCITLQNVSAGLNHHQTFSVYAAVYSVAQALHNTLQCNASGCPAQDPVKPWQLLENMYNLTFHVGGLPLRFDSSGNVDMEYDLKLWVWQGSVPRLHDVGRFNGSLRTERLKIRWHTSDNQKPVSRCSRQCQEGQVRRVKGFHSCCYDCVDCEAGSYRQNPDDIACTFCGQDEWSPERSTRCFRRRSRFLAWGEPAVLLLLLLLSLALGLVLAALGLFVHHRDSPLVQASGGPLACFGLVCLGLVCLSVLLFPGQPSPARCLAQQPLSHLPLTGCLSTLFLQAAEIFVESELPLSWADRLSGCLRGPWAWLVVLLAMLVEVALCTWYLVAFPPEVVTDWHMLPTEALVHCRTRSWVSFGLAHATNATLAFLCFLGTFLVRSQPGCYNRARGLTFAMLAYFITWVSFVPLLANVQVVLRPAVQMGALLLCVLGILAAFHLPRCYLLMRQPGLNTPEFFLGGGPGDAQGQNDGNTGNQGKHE
T1 sequence (Q8TE23 20-839 partner): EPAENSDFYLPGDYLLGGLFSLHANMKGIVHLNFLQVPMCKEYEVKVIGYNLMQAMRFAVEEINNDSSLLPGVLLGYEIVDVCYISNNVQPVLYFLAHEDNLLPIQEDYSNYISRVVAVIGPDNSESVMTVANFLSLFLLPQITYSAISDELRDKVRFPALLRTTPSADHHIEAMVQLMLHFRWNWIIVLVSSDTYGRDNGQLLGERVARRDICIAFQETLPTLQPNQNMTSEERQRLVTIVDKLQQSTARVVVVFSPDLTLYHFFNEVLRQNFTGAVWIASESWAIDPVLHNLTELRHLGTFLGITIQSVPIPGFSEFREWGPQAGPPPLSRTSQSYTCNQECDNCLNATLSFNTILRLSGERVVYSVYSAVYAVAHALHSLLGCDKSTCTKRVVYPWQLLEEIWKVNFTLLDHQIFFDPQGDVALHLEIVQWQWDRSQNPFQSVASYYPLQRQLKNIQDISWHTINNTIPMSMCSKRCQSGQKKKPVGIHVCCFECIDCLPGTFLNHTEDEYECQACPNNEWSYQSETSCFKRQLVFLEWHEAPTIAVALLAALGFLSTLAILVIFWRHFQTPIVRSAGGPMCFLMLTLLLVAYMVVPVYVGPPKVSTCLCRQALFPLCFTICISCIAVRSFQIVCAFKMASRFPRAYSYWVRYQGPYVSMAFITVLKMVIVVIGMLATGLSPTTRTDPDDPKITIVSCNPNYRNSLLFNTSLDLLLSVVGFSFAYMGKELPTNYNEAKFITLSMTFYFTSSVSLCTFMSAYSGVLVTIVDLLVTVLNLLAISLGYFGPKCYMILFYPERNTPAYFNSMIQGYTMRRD
Test: sweet receptor inhibition assay (receptor activated with 2.5 mM sucralose)
Type: cell-based
Protocol: FIG. 1 is a bar graph showing human (h), mouse (m) and chimeric mouse/human (m/h) sweet receptors activated with 2.5 mM sucralose and assayed for inhibition by certain T1R3 inhibitors or controls, measured by DF/F in %.
Chimeric receptors of T1R3 contained the extracellular portion of human or mouse receptor and the transmembrane domain and C-terminal domain from mouse or human receptor: mh indicates the presence of the mouse extracellular domain and human transmembrane domain; hm indicates the presence of the human extracellular domain and mouse transmembrane domain.

## CC(C)(Oc1ccc(Cl)cc1)C(=O)O [clofibric acid]
read-out: IC50, block of the T1R3 receptor
  pIC50: 4.55
read-out: IC50 values, human T1R3 inhibitors
  pIC50: 7.55
